Laboratory results published in patent publication US11000492B2, “Fluorenone compound for the treatment of gout” (The Trustees of Columbia University in the City of New York, priority 2015, dated 2021).
“Also recorded” adds a separate entry of the source. Where two headings read alike, the source gives them in different places.

Assays:
serum uric acid [1] = details: cited from earlier work; for patients meeting target serum levels (serum uric acid): patients with at least one measurable tophus
[2] = humans; originally studied for treating brain edema; cited from earlier work
gout = assay: Administration of DPOFA to subjects afflicted with or at risk of gout (Examples 3-6); assay type: in vivo, human
Description: An amount of compound DPOFA is administered to a human subject afflicted with gout. […] An amount of compound DPOFA in combination with allopurinol or febuxostat is administered to a subject afflicted with gout. […] An amount of compound DPOFA is administered to a subject with a history of gout flares or who is at risk for a gout flare. […] An amount of compound DPOFA in combination with allopurinol or febuxostat is administered to a subject with history of gout flares or who is at risk for a gout flare.

[3] = test system: uric acid levels in the urine; assay: Uric acid levels in the urine of guinea pig; assay type: in vivo
From the text: The fluorenone DPOFA, (R)-(+)-(5,6-dichloro-2,3,9,9a-tetrahydro-3-oxo-9a-propyl-1H-fluoren-7-yl)oxy]acetic acid, was originally developed for trauma-induced brain damage.

serum uric acid [4] = assay: Serum uric acid after systemic intraperitoneal administration in guinea pigs; assay type: in vivo
serum urate = details: cited from earlier work
[5] = particularly in the 400 mg group

Cc1nc(-c2ccc(OCC(C)C)c(C#N)c2)sc1C(=O)O [febuxostat]
patients meeting target serum levels (serum uric acid) (serum uric acid [1]; febuxostat alone): 46%

O=C(O)CSc1nnc(Br)n1-c1ccc(C2CC2)c2ccccc12 [lesinurad]
improvement at six months (primary endpoint) (serum uric acid [1]; 200 mg dose): failed to show a significant improvement | proportion of subjects achieving a complete resolution of at least one tophus by month 12 (serum uric acid [1]; combination with febuxostat): did not result in a significant difference | patients meeting target serum levels (serum uric acid) (serum uric acid [1]; lesinurad 400 mg in combination with febuxostat): 76% | rate of renal-related AEs (serum uric acid [1]; [5]): higher rate of renal-related AEs | serum creatinine levels (serum uric acid [1]; [5]): rise in serum creatinine levels

CCC[C@]12CCC(=O)C=C1c1c(cc(OCC(=O)O)c(Cl)c1Cl)C2 [DPOFA]
crossing of the blood-brain barrier [2]: failed to cross the blood-brain barrier | serum uric acid levels in subject afflicted with gout (gout; human subject afflicted with gout, Example 3): reduces serum uric acid levels | treating gout, combination versus each compound alone (gout; in combination with allopurinol or febuxostat, Example 4): more effective in treating the gout than each compound administered alone | preventing gout, combination versus each compound alone (gout; in combination with allopurinol or febuxostat, Example 6): more effective in preventing the gout than each compound administered alone | prevention of gout flares (gout; subject with a history of gout flares or at risk, Example 5): effective to prevent gout flares | uric acid levels in the urine [3]: increases uric acid levels in the urine | reduction in the serum uric acid level (serum uric acid [4]; 20 mg intraperitoneally): pronounced reduction; also recorded: reduced uric acid levels in the blood | time point of maximum reduction of uric acid (serum uric acid [4]; following systemic administration of 20 mg): 7 h

CCCN(CCC)S(=O)(=O)c1ccc(C(=O)O)cc1 [probenecid]
patients achieving target serum urate concentrations (<0.36 mmol/l) (serum urate; allopurinol combination treatment group, 10/27): 37% | adverse effects, share of subjects tested (serum urate; human, in vivo): 19% | patients achieving target serum urate concentrations (<0.36 mmol/l) (serum urate; probenecid monotherapy group, 10/30): 33%
